Measurements taken from patent publication US20220403326A1, “MEDIA FORMULATIONS AND METHODS FOR PRODUCING PROGENITOR T CELLS” (priority 2019, published 2022).

How the values were obtained:
Format in all cases: cell-based, human
[1] = tested on: CD34+ HSPCs; assay: Definitive screening design cytokine screen for proT cell differentiation and expansion
Experimental: For experiments 7 days or longer, HSPCs were seeded at 63-125 cells/mm^2 (equivalent to 2000-4000 cells/well of a 96-well plate) on DL4+VCAM-1-coated surfaces. Experiments shorter than 7 days (CFSE and qPCR) were seeded at 470-780 cells/mm^2 (equivalent to 15,000-25,000 cells/well of a 96-well plate) to provide enough cells for analysis. Cells were cultured in 100 μl/well (32 μl/well for 384-well plate) of Iscove's Modified Eagle Medium (IMDM) supplemented with 20% bovine serum albumin, insulin, and transferrin (BIT 9500) serum substitute (Stemcell Technologies), 1 μg/ml low-density lipoprotein (LDL; Stemcell Technologies), 60 μM ascorbic acid (Sigma), 24 μM 2-mercaptoethanol (Sigma), and 1% penicillin-streptomycin (P/S; Invitrogen). The cytokines used in control condition were SCF, FLT3L, TPO, and IL-7 (also known as the “4F cytokines”, all of which were obtained from R&D Systems), each at a concentration of 20 ng/ml or 100 ng/ml as indicated in the text. All other cytokines were purchased from R&D Systems and used in the combinations and concentrations indicated in the text. For certain experiments, the γ-secretase inhibitor (2S)-N-[(3,5-Difluorophenyl)acetyl]-L-alanyl-2-phenyl] glycine 1,1-dimethylethyl ester (DAPT) or dimethyl sulfoxide (DMSO) was added to media at the concentrations indicated in the text.
For screening experiments, a Definitive Screening Design (DSD)^7 was employed where each factor was tested at three levels (scaled to [−1,0,1]). The design included at least 2m+1 runs, where m is the number of factors, comprised of m fold-over pairs plus a center run (with all factors at level 0) and with orthogonal blocking of UCB donors.^8
Absolute cell numbers were acquired for each cell population of interest and, for initial experiments, a z-score was calculated relative to the control condition:
where SE(⋅) is the standard error. Control conditions were the cytokines used previously in the DL4+VCAM-1 assay as in Shukla et al.^6 Stepwise regression using the minimum Bayesian information criterion method was used to determine significant terms and, from this, a linear regression model of z-scores was constructed that included main and quadratic effects and two-factor interactions. This provided a better- or worse-than estimate for each factor compared to the control. The DSD layout and regression model were constructed using JMP 13 software (SAS). Follow up experiments measuring the dose response of top factors, the regression model was fit to the absolute cell count. Values were square root or log-transformed as necessary to ensure that residuals were approximately normal before fitting the regression model.
Test conditions were arranged using serial dilutions of each cytokine and laid out using an Eppendorf epMotion 5070 liquid handler in 384-well plates previously coated with DL4 and VCAM-1.
To identify factors that enhance proT cell differentiation and expansion, a two-part screen was conducted from day 0-7 and day 7-14 to separate the effects of screened molecules on HSPCs and differentiating proT cells (FIG. 1a). Screened molecules were tested at three doses each in combination using a definitive screening design (DSD) experiment and a linear regression model was fit to empirical data to estimate dose response.^7 The response to factors was measured against a control condition that contained SCF, FLT3L, TPO and IL-7 cytokines as in Shukla et al.^6 but using a lower concentration of 20 ng/ml each.
Medium gray indicates the effect of the control condition; dark gray to black indicates an effect greater than the control condition; and light gray to white indicates an effect lesser than the control condition. The size of each circle indicates the significance of the effect in the linear regression model. Combinations of factors indicate two-factor interactions (e.g., TPO*IL-1β) or quadratic effects (e.g., IL-21*IL-21) in the regression model. […] IL-3 and TNFα were selected for further investigation. […]

[2] = tested on: Notch target genes in CD34+ HSPCs (CD38lo/− and CD38+ fractions); assay: qRT-PCR of Notch target and pro-myeloid genes after 5 days of culture
Text: Umbilical cord blood (UCB) was collected from consenting donors at Mount Sinai Hospital, Toronto, Ontario, in accordance with institutional research ethics board policies. Mononuclear cells were fractioned via centrifugation using Lympholyte cell separation media (Cedarlane) and red blood cells were lysed using ammonium-chloride-potassium (ACK) lysing buffer prepared in-house. Mononuclear cells were enriched for >90% CD34+ cells using EasySep™ Human CD34+ Positive Selection Kit (Stemcell Technologies) according to the manufacturer's instructions. For certain experiments, enriched CD34+ cells were stained with CD34-APC and CD38-PE antibodies and sorted into CD34+CD38lo/− and CD34+CD38+ fractions using FACS Aria flow cytometer ([…]).
Cells were lysed and RNA isolated using the PureLink™ RNA Micro Kit (Invitrogen) according to the manufacturer's protocol. cDNA was reverse-transcribed from RNA using SuperScript™ III Reverse Transcriptase (Invitrogen) according to the manufacturer's protocol. cDNA was amplified with primers and FastStart SYBR Green Mastermix (Roche) using QuantStudio™ 6 Flex (Applied Biosystems). Relative expression of individual genes was calculated by the delta cycle threshold (ΔCt) method and normalization using β-actin to control for differences in input cDNA.
TNFα activates the NF-KB pathway, which may regulate Notch target genes or regulate Notch itself (FIG. 3a). To investigate if and how TNFα interacts with Notch, CD34+ HSPCs were first sorted into CD38lo/− and CD38+ fractions, and seeded separately on DL4+VCAM-1 with and without TNFα. Gene expression was measured using qPCR after 5 days of culture (FIG. 3b).

[3] = tested on: CD34+ HSPCs; assay: TPO requirement with or without TNFα, 14-day culture; conditions: 14 days
Experimental: To assess the requirement for TPO in T lineage development, CD34+ HSPCs were analyzed by flow cytometry after 14 days in the presence or absence of TNFα, and further in the presence or absence of TPO.

[4] = both CD38lo/− and CD38+ fractions, normalized to β-actin

Q: With TNFα as the substance, how does the “effect on total live cells, CD7+ lymphocytes and CD7+CD5+ cells relative to the control condition” value ([1]; day 0-7 and day 7-14, control SCF, FLT3L, TPO, IL-7 at 20 ng/ml each, linear regression model) read?
A: string positive effects

Q: What about the “dose response of live cells, CD7+ lymphocytes and CD7+CD5+ proT cells” value ([1]; range of concentrations, n=2 UCB donors) of the same substance?
A: curved response in at least one population

Q: And the “expression of any other Notch target genes or NOTCH1 itself” value [2]?
A: No significant differences

Q: What about the SPI1 expression ([2]; CD38lo/− but not CD38+ HSPCs) of the same substance?
A: downregulated SPI1 slightly

Q: And the GATA3 expression [2, 4]?
A: upregulated

Q: And the TCF7 expression [2, 4]?
A: upregulated

Q: And the BCL11b expression ([2]; only CD38lo/− HSPCs)?
A: upregulated

Q: And the CEBPA expression ([2]; only the CD38+ fraction)?
A: significantly downregulated

Q: What about the “T lineage development in the absence of TPO” value [3] of the same substance?
A: supports T lineage development in the absence of TPO
